Data from US20100190788A1, “Amide derivatives as kinase inhitors” (priority 2005, published 2010).

What follows are molecules tested against T1, human ROCKα/ROCKII mix (Homo sapiens, UniProt O75116) (assay: ROCK inhibition, fluorescence polarization (FP) assay with ROCK IMAP Kit). Conditions: Table 1, compounds of Formula IV20.
T1 construct: purchased Upstate Biotechnology 14-451
T1 sequence (O75116 whole entry): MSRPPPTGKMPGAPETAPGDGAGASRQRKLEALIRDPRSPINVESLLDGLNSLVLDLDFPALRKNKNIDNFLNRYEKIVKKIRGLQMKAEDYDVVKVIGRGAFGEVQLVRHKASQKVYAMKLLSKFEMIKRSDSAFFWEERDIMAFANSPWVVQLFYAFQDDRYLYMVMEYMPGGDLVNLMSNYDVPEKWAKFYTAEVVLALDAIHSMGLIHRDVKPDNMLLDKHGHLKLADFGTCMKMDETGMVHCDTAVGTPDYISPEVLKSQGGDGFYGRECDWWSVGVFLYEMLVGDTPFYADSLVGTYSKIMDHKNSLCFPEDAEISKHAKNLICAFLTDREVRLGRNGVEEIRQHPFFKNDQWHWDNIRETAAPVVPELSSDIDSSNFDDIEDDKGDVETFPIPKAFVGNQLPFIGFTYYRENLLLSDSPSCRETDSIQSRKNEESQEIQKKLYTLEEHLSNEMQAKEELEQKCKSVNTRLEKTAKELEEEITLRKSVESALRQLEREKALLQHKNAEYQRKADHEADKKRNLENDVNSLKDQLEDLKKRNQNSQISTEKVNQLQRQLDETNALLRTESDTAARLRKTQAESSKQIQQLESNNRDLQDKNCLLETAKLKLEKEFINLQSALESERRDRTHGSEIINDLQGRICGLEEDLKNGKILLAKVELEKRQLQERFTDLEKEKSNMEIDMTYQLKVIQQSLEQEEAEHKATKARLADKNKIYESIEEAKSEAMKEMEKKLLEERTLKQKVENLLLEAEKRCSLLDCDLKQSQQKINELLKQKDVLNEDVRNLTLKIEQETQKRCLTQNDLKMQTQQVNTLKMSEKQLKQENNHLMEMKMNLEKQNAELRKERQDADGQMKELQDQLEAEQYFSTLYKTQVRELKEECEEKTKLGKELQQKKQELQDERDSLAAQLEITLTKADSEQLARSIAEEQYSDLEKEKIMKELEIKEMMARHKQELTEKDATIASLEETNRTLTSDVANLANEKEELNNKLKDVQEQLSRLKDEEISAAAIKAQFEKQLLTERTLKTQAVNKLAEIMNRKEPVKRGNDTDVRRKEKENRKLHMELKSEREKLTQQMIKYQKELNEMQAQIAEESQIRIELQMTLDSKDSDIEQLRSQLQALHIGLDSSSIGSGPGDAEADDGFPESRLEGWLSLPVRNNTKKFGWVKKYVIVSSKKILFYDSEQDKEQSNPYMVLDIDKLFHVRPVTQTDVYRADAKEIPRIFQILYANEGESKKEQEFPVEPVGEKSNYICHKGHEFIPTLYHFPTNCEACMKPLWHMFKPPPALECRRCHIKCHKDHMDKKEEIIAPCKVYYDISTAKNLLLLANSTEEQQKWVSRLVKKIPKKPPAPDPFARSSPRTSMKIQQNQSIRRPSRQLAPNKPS
Format: biochemical
Procedure: The compounds were tested for inhibition of human ROCKα/ROCKII mix.
The inhibition assays were performed with a fluorescence polarization (FP) assay using the commercially available ROCK IMAP Kit from Molecular Devices (Product ID. No. R8093), essentially in accordance with the protocol supplied by the manufacturer. […] The enzyme mix ROCKα/ROCKII was obtained from Upstate Biotechnology (Product ID No 14-451).
In summary, all compounds were screened in the wells of a 384 well plate for enzymatic inhibition with concentrations varying from 100 μM to 0.3 nM using a stepwise 3 (or 2)-fold dilution.
To perform the assay, 1 μl of a solution of the compound to be tested in DMSO (at each concentration) was added to 2 μl of a solution of the enzyme in 10 mM Tris-HCl, 10 mM MgCl2, 0.1% BSA, 0.05% NaN3, pH 7.2. The final concentration of the enzyme was 2.6 nM.
After incubating for 30 minutes at RT, 2 μl of a mixture of ATP and the protein substrate in 10 mM Tris-HCl, 10 mM MgCl2, 0.1% BSA, 0.05% NaN3, pH 7.2 was added. The final concentration of the ATP was 10 μM and final concentration of protein substrate was 0.2 μM.
After incubating for 60 minutes at RT, 12 μl of the IMAP Binding Solution (mix of the IMAP Binding Buffer A (1×) and the IMAP Binding Reagent (from the ROCK IMAP kit)) was added.
The mixture thus obtained (total volume: 17 μl) was incubated for 60 minutes at RT, upon which the fluorescence polarization was measured using an automated plate reader (Perkin Elmer, Model Envision 2100-0010 HTS) with FP filters: excitation filter FITC FP 480 and emission filters FITC FP P-pol 535 and FITC FP S-pol 535 (Perkin-Elmer). The results were fitted to a curve using the XL-Fit algorithm and IC50 values were calculated for each fitted curve, again using the XL-Fit algorithm.
In the case of NC(C(=O)N1CCCC1c1cccc(F)c1)c1ccc(C(=O)Nc2ccncc2)cc1 (stereo not shown) [Compound 83, 4-{1-amino-2-[2-(3-fluoro-phenyl)-pyrrolidin-1-yl]-2-oxo-ethyl}-N-pyridin-4-yl-benzamide], the IC50 is reported as less than 0.5 µM.

Same assay, conditions: Table 2, compounds of Formula V20
Cc1nn(C)c(Cl)c1S(=O)(=O)NCC(N)c1ccc(C(=O)Nc2ccncc2)cc1 (stereo not shown) [Compound 80, 4-[1-amino-2-(5-chloro-1,3-dimethyl-1H-pyrazole-4-sulfonylamino)-ethyl]-N-pyridin-4-yl-benzamide] showed an IC50 of 0.5 to 5 µM.
Work on NC(CNS(=O)(=O)c1cccc2nonc12)c1ccc(C(=O)Nc2ccncc2)cc1 (stereo not shown) [Compound 81, 4-[1-amino-2-(benzo[1,2,5]-oxadiazole-4-sulfonylamino)-ethyl]-N-pyridin-4-yl-benzamide] yielded an IC50 of less than 0.5 µM.
NC(CNS(=O)(=O)c1cccc2nsnc12)c1ccc(C(=O)Nc2ccncc2)cc1 (stereo not shown) [Compound 82, 4-[1-amino-2-(benzo[1,2,5]-thiadiazole-4-sulfonylamino)-ethyl]-N-pyridin-4-yl-benzamide] gave an IC50 of less than 0.5 µM.

Same assay, conditions: Table 3, compounds of Formula III20
Work on NC(CC(=O)N1CCCC1c1ccccc1)c1ccc(C(=O)Nc2ccncc2)cc1 (stereo not shown) [Compound 84, 4-[1-amino-3-oxo-3-(2-phenyl-pyrrolidin-1-yl)-propyl]-N-pyridin-4-yl-benzamide] yielded an IC50 of less than 0.5 µM.
NC(CC(=O)N1CCCC1c1cccc(Cl)c1)c1ccc(C(=O)Nc2ccncc2)cc1 (stereo not shown) [Compound 85, 4-{1-amino-3-[2-(3-chloro-phenyl)-pyrrolidin-1-yl]-3-oxo-propyl}-N-pyridin-4-yl-benzamide] showed an IC50 of less than 0.5 µM.
For NC(CC(=O)N1CCCC1c1ccc(F)cc1)c1ccc(C(=O)Nc2ccncc2)cc1 (stereo not shown) [Compound 86, 4-{1-amino-3-[2-(4-fluoro-phenyl)-pyrrolidin-1-yl]-3-oxo-propyl}-N-pyridin-4-yl-benzamide], the IC50 was less than 0.5 µM.
NC(CC(=O)N1CCCC1c1cccc(F)c1)c1ccc(C(=O)Nc2ccncc2)cc1 (stereo not shown) [Compound 87, 4-{1-amino-3-[2-(3-fluoro-phenyl)-pyrrolidin-1-yl]-3-oxo-propyl}-N-pyridin-4-yl-benzamide] showed an IC50 of less than 0.5 µM.
Molecule NC(CC(=O)N1CCCC1c1cc(F)ccc1F)c1ccc(C(=O)Nc2ccncc2)cc1 (stereo not shown) [Compound 88, 4-{1-amino-3-[2-(2,5-difluoro-phenyl)-pyrrolidin-1-yl]-3-oxo-propyl}-N-pyridin-4-yl-benzamide] has an IC50 of less than 0.5 µM.
Molecule NC(CC(=O)N1CCCC1c1ccc(F)cc1F)c1ccc(C(=O)Nc2ccncc2)cc1 (stereo not shown) [Compound 89, 4-{1-amino-3-[2-(2,4-difluoro-phenyl)-pyrrolidin-1-yl]-3-oxo-propyl}-N-pyridin-4-yl-benzamide] has an IC50 of less than 0.5 µM.
Work on NC(CC(=O)N1CCCC1c1ccc(Cl)cc1)c1ccc(C(=O)Nc2ccncc2)cc1 (stereo not shown) [Compound 90, 4-{1-amino-3-[2-(4-chloro-phenyl)-pyrrolidin-1-yl]-3-oxo-propyl}-N-pyridin-4-yl-benzamide] yielded an IC50 of less than 0.5 µM.
For NC(CC(=O)N1CCCC1c1ccc(Cl)c(Cl)c1)c1ccc(C(=O)Nc2ccncc2)cc1 (stereo not shown) [Compound 91, 4-{1-amino-3-[2-(3,4-dichloro-phenyl)-pyrrolidin-1-yl]-3-oxo-propyl}-N-pyridin-4-yl-benzamide], the IC50 was less than 0.5 µM.
NC(CC(=O)N1CCCCC1c1ccccc1)c1ccc(C(=O)Nc2ccncc2)cc1 (stereo not shown) [Compound 92, 4-[1-amino-3-oxo-3-(2-phenyl-piperidin-1-yl)-propyl]-N-pyridin-4-yl-benzamide] was tested, and the IC50 was less than 0.5 µM.
With NC(CC(=O)N1CCCCC1c1cccc2ccccc12)c1ccc(C(=O)Nc2ccncc2)cc1 (stereo not shown) [Compound 93, 4-[1-amino-3-(2-naphthalen-1-yl-piperidin-1-yl)-3-oxo-propyl]-N-pyridin-4-yl-benzamide] the IC50 was less than 0.5 µM.
Work on NC(CC(=O)N1CCCCC1c1ccc(Cl)cc1)c1ccc(C(=O)Nc2ccncc2)cc1 (stereo not shown) [Compound 94, 4-{1-amino-3-[2-(4-chloro-phenyl)-piperidin-1-yl]-3-oxo-propyl}-N-pyridin-4-yl-benzamide] yielded an IC50 of less than 0.5 µM.
With NC(CC(=O)N1CCCCC1c1cc(Cl)ccc1Cl)c1ccc(C(=O)Nc2ccncc2)cc1 (stereo not shown) [Compound 95, 4-{1-amino-3-[2-(2,5-dichloro-phenyl)-piperidin-1-yl]-3-oxo-propyl}-N-pyridin-4-yl-benzamide] the IC50 was less than 0.5 µM.
With COc1ccc(Cl)cc1C1CCCCN1C(=O)CC(N)c1ccc(C(=O)Nc2ccncc2)cc1 (stereo not shown) [Compound 96, 4-{1-amino-3-[2-(5-chloro-2-methoxy-phenyl)-piperidin-1-yl]-3-oxo-propyl}-N-pyridin-4-yl-benzamide] the IC50 was less than 0.5 µM.
For NC(CC(=O)N1CCCCC1c1ccc(F)cc1)c1ccc(C(=O)Nc2ccncc2)cc1 (stereo not shown) [Compound 97, 4-{1-amino-3-[2-(4-fluoro-phenyl)-piperidin-1-yl]-3-oxo-propyl}-N-pyridin-4-yl-benzamide], the IC50 was less than 0.5 µM.
With COc1cccc(C2CCCCN2C(=O)CC(N)c2ccc(C(=O)Nc3ccncc3)cc2)c1 (stereo not shown) [Compound 98, 4-{1-amino-3-[2-(3-methoxy-phenyl)-piperidin-1-yl]-3-oxo-propyl}-N-pyridin-4-yl-benzamide] the IC50 was less than 0.5 µM.
With NC(CC(=O)N1CCOCC1c1ccccc1)c1ccc(C(=O)Nc2ccncc2)cc1 (stereo not shown) [Compound 99, 4-[1-Amino-3-oxo-3-(3-phenyl-morpholin-4-yl)-propyl]-N-pyridin-4-yl-benzamide] the IC50 was less than 0.5 µM.
For NC(CC(=O)N1CCOCC1c1ccc(Cl)cc1)c1ccc(C(=O)Nc2ccncc2)cc1 (stereo not shown) [Compound 100, 4-{1-amino-3-[3-(4-chloro-phenyl)-morpholin-4-yl]-3-oxo-propyl}-N-pyridin-4-yl-benzamide], the IC50 was less than 0.5 µM.
Work on NC(CC(=O)N1CCOCC1c1ccc(F)cc1)c1ccc(C(=O)Nc2ccncc2)cc1 (stereo not shown) [Compound 101, 4-{1-amino-3-[3-(4-fluoro-phenyl)-morpholin-4-yl]-3-oxo-propyl}-N-pyridin-4-yl-benzamide] yielded an IC50 of less than 0.5 µM.
NC(CC(=O)N1CCc2c(Cl)cccc2C1)c1ccc(C(=O)Nc2ccncc2)cc1 (stereo not shown) [Compound 102, 4-[1-amino-3-(5-chloro-3,4-dihydro-1H-isoquinolin-2-yl)-3-oxo-propyl]-N-pyridin-4-yl-benzamide] showed an IC50 of less than 0.5 µM.
NC(CC(=O)N1CCc2ccc(Cl)cc2C1)c1ccc(C(=O)Nc2ccncc2)cc1 (stereo not shown) [Compound 103, 4[1-amino-3-(7-chloro-3,4-dihydro-1H-isoquinolin-2-yl)-3-oxo-propyl]-N-pyridin-4-yl-benzamide] gave an IC50 of less than 0.5 µM.
Molecule NC(CC(=O)N1CCc2ccc(F)cc2C1)c1ccc(C(=O)Nc2ccncc2)cc1 (stereo not shown) [Compound 104, 4-[1-amino-3-(7-fluoro-3,4-dihydro-1H-isoquinolin-2-yl)-3-oxo-propyl]-N-pyridin-4-yl-benzamide] has an IC50 of less than 0.5 µM.
Work on NC(CC(=O)N1Cc2ccccc2C1)c1ccc(C(=O)Nc2ccncc2)cc1 (stereo not shown) [Compound 105, 4-[1-amino-3-(1,3-dihydro-isoindol-2-yl)-3-oxo-propyl]-N-pyridin-4-yl-benzamide] yielded an IC50 of less than 0.5 µM.
NC(CC(=O)N1CCSC1)c1ccc(C(=O)Nc2ccncc2)cc1 (stereo not shown) [Compound 106, 4-(1-amino-3-oxo-3-thiazolidin-3-yl-propyl)-N-pyridin-4-yl-benzamide] showed an IC50 of less than 0.5 µM.
In the case of NC(CC(=O)N1CCCCC1)c1ccc(C(=O)Nc2ccncc2)cc1 (stereo not shown) [Compound 107, 4-(1-amino-3-oxo-3-piperidin-1-yl-propyl)-N-pyridin-4-yl-benzamide], the IC50 is reported as less than 0.5 µM.
Molecule CC1CC(C)CN(C(=O)CC(N)c2ccc(C(=O)Nc3ccncc3)cc2)C1 (stereo not shown) [Compound 108, 4-[1-amino-3-(3,5-dimethyl-piperidin-1-yl)-3-oxo-propyl]-N-pyridin-4-yl-benzamide] has an IC50 of less than 0.5 µM.
Work on NC(CC(=O)N1CCCC(CO)C1)c1ccc(C(=O)Nc2ccncc2)cc1 (stereo not shown) [Compound 109, 4-[1-amino-3-(3-hydroxymethyl-piperidin-1-yl)-3-oxo-propyl]-N-pyridin-4-yl-benzamide] yielded an IC50 of less than 0.5 µM.
With NC(CC(=O)N1CCCC2CCCCC21)c1ccc(C(=O)Nc2ccncc2)cc1 (stereo not shown) [Compound 110, 4-[1-amino-3-(octahydro-quinolin-1-yl)-3-oxo-propyl]-N-pyridin-4-yl-benzamide] the IC50 was less than 0.5 µM.
NC(CC(=O)N1CCC(O)(c2ccccc2)CC1)c1ccc(C(=O)Nc2ccncc2)cc1 (stereo not shown) [Compound 111, 4-[1-amino-3-(4-hydroxy-4-phenyl-piperidin-1-yl)-3-oxo-propyl]-N-pyridin-4-yl-benzamide] showed an IC50 of less than 0.5 µM.
NC(CC(=O)N1CCOCC1)c1ccc(C(=O)Nc2ccncc2)cc1 (stereo not shown) [Compound 112, 4-(1-amino-3-morpholin-4-yl-3-oxo-propyl)-N-pyridin-4-yl-benzamide] gave an IC50 of less than 0.5 µM.
Work on CC1CN(C(=O)CC(N)c2ccc(C(=O)Nc3ccncc3)cc2)CC(C)O1 (stereo not shown) [Compound 113, 4-[1-amino-3-(2,6-dimethyl-morpholin-4-yl)-3-oxo-propyl]-N-pyridin-4-yl-benzamide] yielded an IC50 of less than 0.5 µM.
